This passage reports EC30 results from patent US10758534B2 (Vertex Pharmaceuticals Incorporated, priority 2014, dated 2020).

The target in one assay is T1, F508del (Homo sapiens, UniProt P13569, DEL508-508).
T1 construct: expressed in transfected cells
T1 sequence (P13569 with tags, fused parts or gaps DEL508-508): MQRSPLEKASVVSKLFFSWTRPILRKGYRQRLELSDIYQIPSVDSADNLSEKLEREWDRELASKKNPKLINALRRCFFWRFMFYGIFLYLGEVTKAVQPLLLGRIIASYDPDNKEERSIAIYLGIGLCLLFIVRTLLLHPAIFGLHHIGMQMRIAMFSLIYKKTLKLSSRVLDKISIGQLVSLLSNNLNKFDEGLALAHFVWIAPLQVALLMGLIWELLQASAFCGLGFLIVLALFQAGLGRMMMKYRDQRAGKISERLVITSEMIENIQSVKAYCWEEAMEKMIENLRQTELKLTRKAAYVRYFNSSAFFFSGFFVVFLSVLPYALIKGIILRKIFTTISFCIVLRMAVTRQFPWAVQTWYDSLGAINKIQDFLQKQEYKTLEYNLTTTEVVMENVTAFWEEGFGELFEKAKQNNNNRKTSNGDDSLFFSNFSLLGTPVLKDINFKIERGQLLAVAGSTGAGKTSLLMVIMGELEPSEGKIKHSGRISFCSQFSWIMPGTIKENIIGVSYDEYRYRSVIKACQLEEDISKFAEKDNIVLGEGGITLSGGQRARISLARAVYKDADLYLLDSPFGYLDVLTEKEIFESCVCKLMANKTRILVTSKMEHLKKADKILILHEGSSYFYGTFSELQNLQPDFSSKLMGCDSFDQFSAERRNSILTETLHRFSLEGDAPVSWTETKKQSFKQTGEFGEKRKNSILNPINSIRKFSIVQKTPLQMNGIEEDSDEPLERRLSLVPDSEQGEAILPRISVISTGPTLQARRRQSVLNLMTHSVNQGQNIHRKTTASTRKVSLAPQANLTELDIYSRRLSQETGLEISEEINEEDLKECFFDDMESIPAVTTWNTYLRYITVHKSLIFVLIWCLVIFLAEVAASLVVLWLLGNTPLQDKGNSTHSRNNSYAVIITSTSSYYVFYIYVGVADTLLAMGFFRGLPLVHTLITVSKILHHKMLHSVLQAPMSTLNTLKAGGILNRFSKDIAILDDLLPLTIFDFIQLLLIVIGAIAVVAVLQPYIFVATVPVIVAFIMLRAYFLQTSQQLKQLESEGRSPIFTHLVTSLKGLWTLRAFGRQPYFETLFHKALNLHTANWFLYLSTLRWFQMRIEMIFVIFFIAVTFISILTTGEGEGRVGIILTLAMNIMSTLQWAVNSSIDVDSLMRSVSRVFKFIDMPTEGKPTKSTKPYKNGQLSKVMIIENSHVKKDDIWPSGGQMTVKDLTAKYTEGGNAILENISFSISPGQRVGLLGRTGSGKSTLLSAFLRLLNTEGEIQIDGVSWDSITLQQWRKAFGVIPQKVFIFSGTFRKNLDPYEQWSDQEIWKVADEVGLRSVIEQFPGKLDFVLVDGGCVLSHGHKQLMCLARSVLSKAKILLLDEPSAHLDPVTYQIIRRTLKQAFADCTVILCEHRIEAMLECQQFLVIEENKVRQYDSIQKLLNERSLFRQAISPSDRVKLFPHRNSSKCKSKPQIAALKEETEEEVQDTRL
The experiment in a line: Protocol 2: FRET membrane potential optical assay (VIPR), identification of correction compounds. The following applies: F508del CFTR modulator activity; compounds of Table 1; read-out: EC30. In kind it is cell-based. The procedure, abridged:
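FRET read-out (CC2-DMPE donor, DiSBAC2(3) voltage-sensitive acceptor) of membrane depolarization on VIPR II. Corrector candidates incubated 16 hrs at 37° C. with NIH3T3 cells expressing F508del; temperature correction at 27° C. as positive control; stimulation by 10 μM forskolin, 20 μM genistein, chloride-free gluconate bath.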
In general, EC30 refers to the concentration at which the effect reaches the 30% level. As for `CC1CN(c2ncccc2C(=O)NS(=O)(=O)c2cccc(OCC(C)(C)n3cccc3)n2)C(C)(C)C1` (stereo not shown) [Compound 2137, N—[[6-(2-methyl-2-pyrrol-1-yl-propoxy)-2-pyridyl]sulfonyl]-2-(2,2,4-trimethylpyrrolidin-1-yl)pyridine-3-carboxamide], the EC30 was under 3 µM.

Regarding `CC1CN(c2ncccc2C(=O)NS(=O)(=O)c2cccc(OCc3ccco3)n2)C(C)(C)C1` (stereo not shown) [Compound 2308, N—[[6-(2-furylmethoxy)-2-pyridyl]sulfonyl]-2-(2,2,4-trimethylpyrrolidin-1-yl)pyridine-3-carboxamide], the EC30 was under 3 µM.

In the case of `COc1cc(-c2ccc(C(=O)NS(=O)(=O)c3cccnc3N)c(N3C[C@@H](C)CC3(C)C)n2)cc(F)c1F` [Compound 1998, N-[(2-amino-3-pyridyl)sulfonyl]-6-(3,4-difluoro-5-methoxy-phenyl)-2-[(4S)-2,2,4-trimethylpyrrolidin-1-yl]pyridine-3-carboxamide], the EC30 is under 3 µM.

Consider `CC1CN(c2ncccc2C(=O)NS(=O)(=O)c2cccc(Oc3cccc(Cl)c3F)n2)C(C)(C)C1` (stereo not shown) [Compound 2165, N—[[6-(3-chloro-2-fluoro-phenoxy)-2-pyridyl]sulfonyl]-2-(2,2,4-trimethylpyrrolidin-1-yl)pyridine-3-carboxamide], for which the EC30 was under 3 µM.

Take `C[C@@H]1CN(c2nc(-n3ccc(-c4ccccc4)n3)ccc2C(=O)NS(=O)(=O)C2CC2)C(C)(C)C1` [Compound 2674, N-cyclopropylsulfonyl-6-(3-phenylpyrazol-1-yl)-2-[(4S)-2,2,4-trimethylpyrrolidin-1-yl]pyridine-3-carboxamide]: the EC30 is under 3 µM.

Turning to `CC1CN(c2ncccc2C(=O)NS(=O)(=O)c2cccc(Nc3ccc4c(ccn4C)c3)n2)C(C)(C)C1` (stereo not shown) [Compound 2193, N—[[6-[(1-methylindol-5-yl)amino]-2-pyridyl]sulfonyl]-2-(2,2,4-trimethylpyrrolidin-1-yl)pyridine-3-carboxamide], the EC30 was under 3 µM.

`Cc1cc(C)cc(-c2ccc(C(=O)NS(=O)(=O)c3cccc(OCCC(C)C)n3)c(N3C[C@@H](C)CC3(C)C)n2)c1` [Compound 2701]: the EC30 is under 3 µM.

Take `CC1CN(c2ncccc2C(=O)NS(=O)(=O)c2cccc(N(C)CCc3cccnc3)n2)C(C)(C)C1` (stereo not shown) [Compound 2005, N—[[6-[methyl-[2-(3-pyridyl)ethyl]amino]-2-pyridyl]sulfonyl]-2-(2,2,4-trimethylpyrrolidin-1-yl)pyridine-3-carboxamide]: the EC30 lay within 3 to 10 µM.

As to `CC1CN(c2ncc(-c3cccc4[nH]ncc34)cc2C(=O)NS(=O)(=O)c2cccc(N)n2)C(C)(C)C1` (stereo not shown) [Compound 2157, N-[(6-amino-2-pyridyl)sulfonyl]-5-(1H-indazol-4-yl)-2-(2,2,4-trimethylpyrrolidin-1-yl)pyridine-3-carboxamide], the EC30 was over 10 µM.

For the compound `Cc1cc(-c2ccc(C(=O)NS(=O)(=O)c3cccc(N)n3)c(N3C[C@@H](C)CC3(C)C)n2)ccc1OC(F)F` [Compound 2543, N-[(6-amino-2-pyridyl)sulfonyl]-6-[4-(difluoromethoxy)-3-methyl-phenyl]-2-[(4S)-2,2,4-trimethylpyrrolidin-1-yl]pyridine-3-carboxamide], the EC30 is under 3 µM.

As for `CC1CN(c2ncccc2C(=O)NS(=O)(=O)c2cccc(NC(C)c3cccc4ccccc34)n2)C(C)(C)C1` (stereo not shown) [Compound 2049, N—[[6-[1-(1-naphthyl)ethylamino]-2-pyridyl]sulfonyl]-2-(2,2,4-trimethylpyrrolidin-1-yl)pyridine-3-carboxamide], the EC30 was under 3 µM.

For `C[C@@H]1CN(c2nc(-c3cccc(CO)c3)ccc2C(=O)NS(=O)(=O)c2ccc[nH]c2=O)C(C)(C)C1` [Compound 1997, 6-[3-(hydroxymethyl)phenyl]-N-[(2-oxo-1H-pyridin-3-yl)sulfonyl]-2-[(4S)-2,2,4-trimethylpyrrolidin-1-yl]pyridine-3-carboxamide], the EC30 lay in the range of 3 to 10 µM.

On to `Cc1cccc(-c2ccc(C(=O)NS(=O)(=O)c3cccc(N)n3)c(N3C[C@@H](C)CC3(C)C)n2)c1C` [Compound 2287, N-[(6-amino-2-pyridyl)sulfonyl]-6-(2,3-dimethylphenyl)-2-[(4S)-2,2,4-trimethylpyrrolidin-1-yl]pyridine-3-carboxamide], for which the EC30 is under 3 µM.

In the case of `CC1CN(c2ncccc2C(=O)NS(=O)(=O)c2cccc(NC3CCN(Cc4ccccc4)C3)n2)C(C)(C)C1` (stereo not shown) [Compound 2407, N—[[6-[(1-benzylpyrrolidin-3-yl)amino]-2-pyridyl]sulfonyl]-2-(2,2,4-trimethylpyrrolidin-1-yl)pyridine-3-carboxamide], the EC30 was in the range of 3 to 10 µM.

The same assay, now with this note: Table 3; compounds of Table 1 as modulators of CFTR activity; protocol not stated.
For `COc1ccc(-c2cc(C(=O)NS(=O)(=O)c3ccccc3)n(Cc3c(C)cccc3C)n2)cc1F` [Compound 43, N-(benzenesulfonyl)-2-[(2,6-dimethylphenyl)methyl]-5-(3-fluoro-4-methoxy-phenyl)pyrazole-3-carboxamide], the EC30 result is recorded as “+++ (“+++” means <3 uM)”.

As for `Cc1cc(C)c(Oc2nc(C)ccc2C(=O)NS(=O)(=O)c2cccc(NCCN)n2)c(C)c1` [Compound 792, N-[[6-(2-aminoethylamino)-2-pyridyl]sulfonyl]-6-methyl-2-(2,4,6-trimethylphenoxy)pyridine-3-carboxamide], the EC30 result was “++ (“++” means between 3 uM and 10 uM)”.

Regarding `Cc1ccc(C(=O)NS(=O)(=O)c2cccc(N)n2)c(N2CCC[C@@H](c3ccccc3)C2)n1` [Compound 532, N-[(6-amino-2-pyridyl)sulfonyl]-6-methyl-2-[(3S)-3-phenyl-1-piperidyl]pyridine-3-carboxamide], the EC30 entry was “++ (“++” means between 3 uM and 10 uM)”.

On to `Cc1cc(C)c(Cn2c(C(=O)NS(=O)(=O)c3cccc(N)c3)cc3c(F)cccc32)c(C)c1` [Compound 181, N-(3-aminophenyl)sulfonyl-4-fluoro-1-[(2,4,6-trimethylphenyl)methyl]indole-2-carboxamide], for which the EC30 entry was “+++ (“+++” means <3 uM)”.

Turning to `Cc1cc(C)c(Oc2nc(C3CC3)cc(C(F)(F)F)c2C(=O)NS(=O)(=O)c2cccc(N)n2)c(C)c1` [Compound 54, N-[(6-amino-2-pyridyl)sulfonyl]-6-cyclopropyl-4-(trifluoromethyl)-2-(2,4,6-trimethylphenoxy)pyridine-3-carboxamide], the EC30 entry was “++ (“++” means between 3 uM and 10 uM)”.

As to `CC(c1ccccc1)N1Cc2ccccc2C1C(=O)NS(=O)(=O)c1cccc(N)c1` (stereo not shown) [Compound 187, N-(3-aminophenyl)sulfonyl-2-(1-phenylethyl)isoindoline-1-carboxamide], the EC30 entry is “++ (“++” means between 3 uM and 10 uM)”.

Consider `Cc1ccc(-c2nc(-c3cc(F)cc(OC(C)C)c3)ccc2C(=O)NS(=O)(=O)c2cccc(N)n2)cc1` [Compound 722, N-[(6-amino-2-pyridyl)sulfonyl]-6-(3-fluoro-5-isopropoxy-phenyl)-2-(p-tolyl)pyridine-3-carboxamide], for which the EC30 result was “+ (“+” means greater than 10 uM)”.

As to `CC[C@@H]1CCCN1c1nc(-c2cc(F)cc(OCC(C)C)c2)ccc1C(=O)NS(=O)(=O)c1ccn[nH]1` [Compound 591, 2-(2-ethylpyrrolidin-1-yl)-6-(3-fluoro-5-isobutoxy-phenyl)-N-(1H-pyrazol-5-ylsulfonyl)pyridine-3-carboxamide], the EC30 entry was “+++ (“+++” means <3 uM)”.
